Results taken from patent publication US8003660B2, “Modulators of muscarinic receptors” (Vertex Pharmaceuticals Incorporated, priority 2006, dated 2011).
Where two headings read alike, the source gives them in different places.

How the values were obtained:
Assay type in all cases: cell-based
[1] = biological target: T1, M2 muscarinic receptor (Homo sapiens, UniProt P08172); experiment: Functional mobilization of intracellular calcium (FLIPR) in CHO cells expressing M2; details: for EC50: CHO cells expressing M2, FLIPR calcium; for Emax: CHO
T1 construct: expressed in transfected cells; host or cells: CHO (M2-CHO)
T1 sequence (P08172 1-466): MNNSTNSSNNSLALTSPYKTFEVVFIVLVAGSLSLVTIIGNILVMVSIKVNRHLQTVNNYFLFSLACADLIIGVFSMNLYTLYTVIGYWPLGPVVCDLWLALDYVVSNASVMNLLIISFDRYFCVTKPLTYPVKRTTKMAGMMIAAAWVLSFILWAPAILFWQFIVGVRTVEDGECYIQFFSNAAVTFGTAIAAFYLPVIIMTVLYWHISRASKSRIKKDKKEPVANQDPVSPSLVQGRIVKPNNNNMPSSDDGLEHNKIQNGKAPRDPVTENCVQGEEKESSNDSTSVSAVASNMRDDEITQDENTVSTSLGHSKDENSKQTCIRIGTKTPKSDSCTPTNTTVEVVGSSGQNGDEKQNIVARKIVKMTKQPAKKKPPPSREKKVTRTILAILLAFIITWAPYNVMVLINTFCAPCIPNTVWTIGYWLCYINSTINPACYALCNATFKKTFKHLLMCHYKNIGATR
Description: (§1) Functional Mobilization of Intracellular Calcium to Determine Muscarinic Receptor Activity:
(§2) CHO cells expressing muscarinic receptors (M1 to M5) are grown as monolayers in tissue culture flasks at 37° C. in a humidified atmosphere containing 5% CO2 and passaged every 3-5 days. The growth media is Dulbecco's modified eagles medium (DMEM, Gibco Cat# 12430-054), containing 25 mM Hepes and supplemented with Fetal Bovine Serum (Hyclone, cat# SH30071.03), 0.1 mM of MEM non-essential amino acids (GIBCO, Cat# 11140-050), 1 mM MEM Sodium Pyruvate (GIBCO Cat# 11360-070) and 100 units/ml of Penicillin G and 100 μg/ml of Streptomycin (GIBCO Cat# 15140-122). The recombinant muscarinic receptor cell lines are grown under antibiotic pressure with media containing 25 μg/ml zeocin and 500 μg/ml G418 (M1-CHO), 4 μg/ml puromycin, 50 μg/ml zeocin and 2.5 μg/ml blasticidin (M2 and M4-CHO) or 50 μg/ml zeocin and 4 μg/ml puromycin (M3 and M5-CHO).
(§3) Cells are harvested at 80-90% confluence using Versene (GIBCO Cat# 15040-066), collected by centrifugation and seeded 18-24 hrs prior to running the calcium assay at a density of 5,000-10,000 cells/well in […], clear-bottomed 384-well plates (BD Biocoat, poly-D-lysine, Cat#356663). The day of the experiment, the cells are washed with a plate washer (Bioteck Instruments, ELX 405) using bath 1 buffer (140 mM NaCl, 4,5 mM KCl, 2 mM CaCl2, 1 mM MgCl2, 10 mM Hepes-Na, 10 mM Glucose, pH 7.4, with NaOH) containing 1 mM Probenecid. Next, the calcium dye Fluo-3 (25 μl/well of Fluo-3 AM at 4 μM, Molecular Probes F-1241, in Bath 1 buffer containing 1 mM Probenecid) is added to the 25 μl of Bath 1 remaining in each well after the plate wash and the dye is loaded at 37° C. in the tissue culture incubator for 60-90 min. The fluorescent dye is removed using the plate washer with Bath 1 containing 1 mM Probenecid, leaving 25 μl/well of this solution after the wash. Alternatively, cells can be loaded with the calcium indicator from Molecular Devices (Calcium 3 Assay Reagents, Cat #R7181) adding 5 μl of a 5× solution dye in Bath 1 containing 1 mM Probenecid (10 ml per dye flask cat#R7182 to generate a solution […]) to 20 μl of the same buffer. After loading for 60 min, the experiment can be run without having to remove the dye.
(§4) Compounds are prepared at a 2× fold concentration in a 96-well plate (round bottom, Costar Corning cat#3656), by reconstituting the pre-spotted compounds in bath 1 containing 1 mM probenecid. The final concentration DMSO is 0.5%, and the amount of DMSO is normalized across the assay plate. To determine an agonist action of the compounds on muscarinic receptors, the reconstituted compounds are added (25 μl compound/well) to the cell assay plate (containing 25 μl/well) using the multi-channel robotic system of the FLIPR 3 Instrument (Molecular Devices, Sunnyvale, Calif.). To determine a functional inhibitory action of the compounds on muscarinic receptors, the reconstituted compounds are added (25 μl compound/well) to the assay plate and pre-incubated for 15 min prior to adding 25 μl of Carbachol at 3× the EC80 for each muscarinic subtype. Alternatively, the compounds can be co-applied simultaneously with the agonist. In both assay modes, the fluorescence is recorded for 60 sec (excitation wavelength is […] and emission wavelength 540 nm) using the FLIPR 3 instrument.
(§5) The potency, efficacy and selectivity of the muscarinic compounds were evaluated by screening the compound activity across the whole family (M1 to M5 cells). Compounds were also screened for activity on other proteins such as other GPCRs and ion channels to determine selectivity on M4 receptors.

[2] = biological target: T2, M1 muscarinic receptor (Homo sapiens, UniProt P11229); experiment: Functional mobilization of intracellular calcium (FLIPR) in CHO cells expressing M1; details: for EC50: CHO cells expressing M1, FLIPR calcium; for Emax: CHO
T2 construct: expressed in transfected cells; host or cells: CHO (M1-CHO)
T2 sequence (P11229 1-460): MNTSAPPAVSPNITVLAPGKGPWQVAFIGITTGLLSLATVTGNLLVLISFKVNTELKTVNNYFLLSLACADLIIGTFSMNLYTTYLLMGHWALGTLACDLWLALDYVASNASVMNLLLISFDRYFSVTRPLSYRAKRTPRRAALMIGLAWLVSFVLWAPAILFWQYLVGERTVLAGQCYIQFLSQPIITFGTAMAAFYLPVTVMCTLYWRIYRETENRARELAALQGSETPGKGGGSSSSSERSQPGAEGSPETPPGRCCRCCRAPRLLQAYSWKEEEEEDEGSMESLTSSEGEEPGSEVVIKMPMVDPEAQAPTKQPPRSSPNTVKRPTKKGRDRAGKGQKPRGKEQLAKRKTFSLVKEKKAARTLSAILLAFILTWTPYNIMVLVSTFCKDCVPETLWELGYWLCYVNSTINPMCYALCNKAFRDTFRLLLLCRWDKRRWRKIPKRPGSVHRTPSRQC
Description: as §1, §2, §3, §4, §5

[3] = biological target: T3, M4 muscarinic receptor (Homo sapiens, UniProt P08173); experiment: Functional mobilization of intracellular calcium (FLIPR) in CHO cells expressing M4; details: for EC50: CHO cells expressing M4, FLIPR calcium; for Emax: CHO
T3 construct: expressed in transfected cells; host or cells: CHO (M4-CHO)
T3 sequence (P08173 1-479): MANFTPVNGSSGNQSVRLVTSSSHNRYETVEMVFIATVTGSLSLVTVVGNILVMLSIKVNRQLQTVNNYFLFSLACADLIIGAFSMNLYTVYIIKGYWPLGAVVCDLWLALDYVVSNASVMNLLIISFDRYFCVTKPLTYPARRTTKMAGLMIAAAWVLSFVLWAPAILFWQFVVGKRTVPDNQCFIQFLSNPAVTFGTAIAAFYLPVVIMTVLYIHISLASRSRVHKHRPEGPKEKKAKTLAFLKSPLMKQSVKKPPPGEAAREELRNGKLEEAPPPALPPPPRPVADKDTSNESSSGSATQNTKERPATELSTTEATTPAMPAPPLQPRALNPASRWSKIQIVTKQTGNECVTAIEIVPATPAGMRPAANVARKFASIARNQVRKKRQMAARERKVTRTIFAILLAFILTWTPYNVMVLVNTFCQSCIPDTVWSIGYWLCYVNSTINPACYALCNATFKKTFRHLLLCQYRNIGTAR
Description: as §1, §2, §3, §4, §5

[4] = biological target: T4, M3 muscarinic receptor (Homo sapiens, UniProt P20309); experiment: Functional mobilization of intracellular calcium (FLIPR) in CHO cells expressing M3; details: for EC50: CHO cells expressing M3, FLIPR calcium; for Emax: CHO
T4 construct: expressed in transfected cells; host or cells: CHO (M3-CHO)
T4 sequence (P20309 whole entry): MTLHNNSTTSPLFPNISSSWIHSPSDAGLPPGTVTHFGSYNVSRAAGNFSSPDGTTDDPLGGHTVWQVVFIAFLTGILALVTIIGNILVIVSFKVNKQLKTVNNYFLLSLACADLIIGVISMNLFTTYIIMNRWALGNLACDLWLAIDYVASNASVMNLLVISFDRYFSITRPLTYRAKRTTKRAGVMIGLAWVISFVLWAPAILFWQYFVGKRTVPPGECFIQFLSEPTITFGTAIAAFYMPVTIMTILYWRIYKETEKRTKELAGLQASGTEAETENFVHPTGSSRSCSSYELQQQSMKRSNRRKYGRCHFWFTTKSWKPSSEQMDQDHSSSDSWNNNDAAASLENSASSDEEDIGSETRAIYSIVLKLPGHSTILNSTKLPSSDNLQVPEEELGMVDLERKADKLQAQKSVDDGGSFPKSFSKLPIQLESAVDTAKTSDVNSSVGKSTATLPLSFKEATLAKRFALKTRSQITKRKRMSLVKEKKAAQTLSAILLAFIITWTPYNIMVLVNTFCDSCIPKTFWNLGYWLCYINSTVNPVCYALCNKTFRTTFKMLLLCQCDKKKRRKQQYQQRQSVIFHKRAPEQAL
Description: as §1, §2, §3, §4, §5

[5] = 100% = maximum response obtained with the Carbachol control, read-out: M2 Efficacy
[6] = 100% = maximum response obtained with the Carbachol control, read-out: M1 Efficacy
[7] = 100% = maximum response obtained with the Carbachol control, read-out: M4 Efficacy
[8] = 100% = maximum response obtained with the Carbachol control, read-out: M3 Efficacy
[9] = 100% efficacy = maximum response obtained with the Carbachol control

SMILES	EC50 [1]	Emax [1, 5]	EC50 [2]	Emax [2, 6]	EC50 [3]	Emax [3, 7]	EC50 [4]	Emax [4, 8]	M2 Activity ([1]; CHO cells expressing M2, FLIPR calcium assay)	Emax [1, 9]	M1 Activity ([2]; CHO cells expressing M1, FLIPR calcium assay)	Emax [2, 9]	M4 Activity ([3]; CHO cells expressing M4, FLIPR calcium assay)	Emax [3, 9]	M3 Activity ([4]; CHO cells expressing M3, FLIPR calcium assay)	Emax [4, 9]
COCCC(=O)N[C@@H]1CCC2(CCN(CCC(C)(C)C)CC2)c2ccccc21 [compound 105]	> 5000 nM	< 25%	2000 to 5000 nM	< 25%	< 2000 nM	25 to 100%	> 5000 nM	< 25%	–	–	–	–	–	–	–	–
CC(=O)N[C@H]1CC2(CCN(CCC(C)(C)C)CC2)c2ccc(C)cc21 [compound 253]	–	–	–	–	–	–	–	–	+ (activity was measured to be greater than 5.0 μM)	< 25%	+ (activity was measured to be greater than 5.0 μM)	< 25%	+ (activity was measured to be greater than 5.0 μM)	25 to 100%	+ (activity was measured to be greater than 5.0 μM)	< 25%
CCOCC(=O)N(CC)[C@H]1CCC2(CCN(CCC(C)(C)C)CC2)c2ccccc21 [compound 140]	> 5000 nM	< 25%	2000 to 5000 nM	25 to 100%	< 2000 nM	25 to 100%	> 5000 nM	< 25%	–	–	–	–	–	–	–	–
CC(C)(C)CCN1CCC2(CC[C@H](NC(=O)C3CC3)c3ccccc32)CC1 [compound 158]	< 2000 nM	25 to 100%	< 2000 nM	25 to 100%	< 2000 nM	25 to 100%	> 5000 nM	< 25%	–	–	–	–	–	–	–	–
CC(=O)N[C@H](C)C(=O)N[C@@H]1CCC2(CCN(CCC(C)(C)C)CC2)c2cc(F)ccc21 [compound 163]	< 2000 nM	25 to 100%	< 2000 nM	25 to 100%	< 2000 nM	25 to 100%	> 5000 nM	< 25%	–	–	–	–	–	–	–	–
CC(C)C[C@@H](C(=O)N[C@H]1CCC2(CCN(CCC(C)(C)C)CC2)c2ccccc21)N1CCCC1=O [compound 23]	> 5000 nM	< 25%	2000 to 5000 nM	< 25%	< 2000 nM	25 to 100%	> 5000 nM	< 25%	–	–	–	–	–	–	–	–
